Source: patent US12558428B2, “Heterobifunctional compounds and their use in treating disease” (Halda Therapeutics OpCo, Inc., priority 2024, dated 2026)

These molecules were tested on T-Rex 293 cells lacking increased expression of estrogen receptor alpha protein (assay: Cellular growth inhibition assay, T-Rex 293 cells, (−) doxycycline). Settings: T-REx-293, 72 h, Table 7-A; T-Rex 293 cells without doxycycline (lacking increased ERα expression); 72 hours; CellTiter-Glo; read-out: (−) Dox GI50.
Format: cell-based
Summary of the method: (§1)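 Viability read-out was CellTiter-Glo 2.0 luminescence after 72 h compound exposure, normalized to zero luminescence and fitted by four-parameter regression to give GI50. Cells were an ERα-inducible T-Rex 293 clone cultured with or without 3 ng/mL doxycycline in charcoal-stripped, phenol red-free medium.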
In the case of `Cc1sc2c(c1C)C(c1ccc(N3CC4(CCC(CN5CCC(c6ccc(C7=C(c8ccccc8Cl)CCCc8cc(C(=O)O)ccc87)cc6)CC5)CC4)C3)cc1)=N[C@@H](C)c1nnc(C)n1-2` [IV-56], the GI50 was 0.05 to 0.5 µM. Work on `Cc1sc2c(c1C)C(c1ccc(N3CCC(O)(CN4CCN(c5ccc(C6=C(c7ccc(Cl)cc7)CCCc7cc(C(=O)O)ccc76)cc5)CC4)CC3)cc1)=N[C@@H](C)c1nnc(C)n1-2` [IV-57] yielded a GI50 of 0.5 to 2.5 µM. In the case of `Cc1sc2c(c1C)C(c1ccc(N3CC4(CC(CN5CCN(c6ccc(C7=C(c8ccccc8Cl)CCCc8cc(C(=O)O)ccc87)c(F)c6)CC5)C4)C3)cc1)=N[C@@H](C)c1nnc(C)n1-2` [IV-58], the GI50 was 0.5 to 2.5 µM. `Cc1sc2c(c1C)C(c1ccc(N3CC4(CC(CN5CCN(c6ccc(C7=C(c8ccccc8Cl)CCCc8cc(C(=O)O)ccc87)cc6)CC5)C4)C3)cc1)=N[C@@H](C)c1nnc(C)n1-2` [IV-59] showed a GI50 of 0.5 to 2.5 µM. In the case of `Cc1sc2c(c1C)C(c1ccc(N3CCC(O)(CN4CCN(c5ccc(C6=C(c7ccccc7Cl)CCCc7cc(C(=O)O)ccc76)c(F)c5)CC4)CC3)cc1)=N[C@@H](Cc1ncco1)c1nnc(C)n1-2` [IV-60], the GI50 was 0.05 to 0.5 µM. `Cc1sc2c(c1C)C(c1ccc(N3CCC(O)(CN4CCN(c5ccc(C6=C(c7ccccc7Cl)CCCc7cc(C(=O)O)ccc76)cc5)CC4)CC3)c(Cl)c1)=N[C@@H](C)c1nnc(C)n1-2` [IV-61] gave a GI50 of 0.5 to 2.5 µM. For `Cc1sc2c(c1C)C(c1ccc(C3CN(CC4CC(CN5CC(c6ccc(C7=C(c8ccccc8)CCCc8cc(C(=O)O)ccc87)cc6)C5)C4)C3)cc1)=N[C@@H](C)c1nnc(C)n1-2` (stereo partly drawn) [IV-62], the GI50 was 0.5 to 2.5 µM. Molecule `Cc1sc2c(c1C)C(c1ccc(N3CCC(O)(CN4CCN(c5ccc(C6=C(c7ccccc7)CCCc7cc(B(O)O)ccc76)cc5)CC4)CC3)cc1)=N[C@@H](C)c1nnc(C)n1-2` [IV-63] has a GI50 of 0.5 to 2.5 µM.

The molecules below were run on MCF7 cells (ATCC #HTB-22) (assay: Cellular growth inhibition assay, MCF7 cells purchased from ATCC). Settings: Homo sapiens, MCF7, 144 h, Table 8-A; MCF7 cells purchased from ATCC; six days; CellTiter-Glo; read-out: GI50.
Format: cell-based
Summary of the method: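 MCF7 cells in RPMI 1640 with 10% FBS and 0.2 U/ml insulin, seeded at 1,500 cells/well (ATCC) or 225 cells/well (ECACC). Compounds added 24 h later, then 6 days at 37° C. Viability by CellTiter-Glo 2.0 luminescence. GI50 from four-parameter fit.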
For `Cc1sc2c(c1C)C(c1ccc(N3CC4(CCC(CN5CCC(c6ccc(C7=C(c8ccccc8Cl)CCCc8cc(C(=O)O)ccc87)cc6)CC5)CC4)C3)cc1)=N[C@@H](C)c1nnc(C)n1-2` [IV-56], the GI50 was under 0.05 µM. With `Cc1sc2c(c1C)C(c1ccc(N3CCC(O)(CN4CCN(c5ccc(C6=C(c7ccc(Cl)cc7)CCCc7cc(C(=O)O)ccc76)cc5)CC4)CC3)cc1)=N[C@@H](C)c1nnc(C)n1-2` [IV-57] the GI50 was under 0.05 µM. `Cc1sc2c(c1C)C(c1ccc(N3CC4(CC(CN5CCN(c6ccc(C7=C(c8ccccc8Cl)CCCc8cc(C(=O)O)ccc87)c(F)c6)CC5)C4)C3)cc1)=N[C@@H](C)c1nnc(C)n1-2` [IV-58] showed a GI50 of under 0.05 µM. `Cc1sc2c(c1C)C(c1ccc(N3CC4(CC(CN5CCN(c6ccc(C7=C(c8ccccc8Cl)CCCc8cc(C(=O)O)ccc87)cc6)CC5)C4)C3)cc1)=N[C@@H](C)c1nnc(C)n1-2` [IV-59] showed a GI50 of under 0.05 µM. `Cc1sc2c(c1C)C(c1ccc(N3CCC(O)(CN4CCN(c5ccc(C6=C(c7ccccc7Cl)CCCc7cc(C(=O)O)ccc76)c(F)c5)CC4)CC3)cc1)=N[C@@H](Cc1ncco1)c1nnc(C)n1-2` [IV-60] gave a GI50 of under 0.05 µM. `Cc1sc2c(c1C)C(c1ccc(N3CCC(O)(CN4CCN(c5ccc(C6=C(c7ccccc7Cl)CCCc7cc(C(=O)O)ccc76)cc5)CC4)CC3)c(Cl)c1)=N[C@@H](C)c1nnc(C)n1-2` [IV-61] gave a GI50 of under 0.05 µM. In the case of `Cc1sc2c(c1C)C(c1ccc(C3CN(CC4CC(CN5CC(c6ccc(C7=C(c8ccccc8)CCCc8cc(C(=O)O)ccc87)cc6)C5)C4)C3)cc1)=N[C@@H](C)c1nnc(C)n1-2` (stereo partly drawn) [IV-62], the GI50 was under 0.05 µM. Work on `Cc1sc2c(c1C)C(c1ccc(N3CCC(O)(CN4CCN(c5ccc(C6=C(c7ccccc7)CCCc7cc(B(O)O)ccc76)cc5)CC4)CC3)cc1)=N[C@@H](C)c1nnc(C)n1-2` [IV-63] yielded a GI50 of under 0.05 µM.

Each molecule was assayed on T-Rex 293 cells having increased expression of estrogen receptor alpha protein (assay: Cellular growth inhibition assay, T-Rex 293 cells, (+) doxycycline). Settings: T-REx-293, 72 h, Table 7-A; T-Rex 293 cells with doxycycline (increased ERα expression); 72 hours; CellTiter-Glo; read-out: (+) Dox GI50.
Format: cell-based
Summary of the method: as §1
Work on `Cc1sc2c(c1C)C(c1ccc(N3CC4(CCC(CN5CCC(c6ccc(C7=C(c8ccccc8Cl)CCCc8cc(C(=O)O)ccc87)cc6)CC5)CC4)C3)cc1)=N[C@@H](C)c1nnc(C)n1-2` [IV-56] yielded a GI50 of under 0.05 µM. `Cc1sc2c(c1C)C(c1ccc(N3CCC(O)(CN4CCN(c5ccc(C6=C(c7ccc(Cl)cc7)CCCc7cc(C(=O)O)ccc76)cc5)CC4)CC3)cc1)=N[C@@H](C)c1nnc(C)n1-2` [IV-57] showed a GI50 of under 0.05 µM. `Cc1sc2c(c1C)C(c1ccc(N3CC4(CC(CN5CCN(c6ccc(C7=C(c8ccccc8Cl)CCCc8cc(C(=O)O)ccc87)c(F)c6)CC5)C4)C3)cc1)=N[C@@H](C)c1nnc(C)n1-2` [IV-58] showed a GI50 of under 0.05 µM. Molecule `Cc1sc2c(c1C)C(c1ccc(N3CC4(CC(CN5CCN(c6ccc(C7=C(c8ccccc8Cl)CCCc8cc(C(=O)O)ccc87)cc6)CC5)C4)C3)cc1)=N[C@@H](C)c1nnc(C)n1-2` [IV-59] has a GI50 of under 0.05 µM. With `Cc1sc2c(c1C)C(c1ccc(N3CCC(O)(CN4CCN(c5ccc(C6=C(c7ccccc7Cl)CCCc7cc(C(=O)O)ccc76)c(F)c5)CC4)CC3)cc1)=N[C@@H](Cc1ncco1)c1nnc(C)n1-2` [IV-60] the GI50 was under 0.05 µM. Work on `Cc1sc2c(c1C)C(c1ccc(N3CCC(O)(CN4CCN(c5ccc(C6=C(c7ccccc7Cl)CCCc7cc(C(=O)O)ccc76)cc5)CC4)CC3)c(Cl)c1)=N[C@@H](C)c1nnc(C)n1-2` [IV-61] yielded a GI50 of under 0.05 µM. With `Cc1sc2c(c1C)C(c1ccc(C3CN(CC4CC(CN5CC(c6ccc(C7=C(c8ccccc8)CCCc8cc(C(=O)O)ccc87)cc6)C5)C4)C3)cc1)=N[C@@H](C)c1nnc(C)n1-2` (stereo partly drawn) [IV-62] the GI50 was under 0.05 µM. Work on `Cc1sc2c(c1C)C(c1ccc(N3CCC(O)(CN4CCN(c5ccc(C6=C(c7ccccc7)CCCc7cc(B(O)O)ccc76)cc5)CC4)CC3)cc1)=N[C@@H](C)c1nnc(C)n1-2` [IV-63] yielded a GI50 of under 0.05 µM.
